Measured values reported in patent publication US20100298249A1, “PHARMACEUTICAL OR COSMETIC PREPARATIONS FOR TOPICAL AND/OR PARENTERAL APPLICATION, PREPARATION METHODS THEREOF AND USE OF SAME” (priority 2007, published 2010).

Legend:
[1] = target: hyaluronidase of bovine origin (Bos taurus, UniProt Q2YDK3); assay: Inhibitory effect on hyaluronidase activity of bovine origin (turbidimetry of nonhydrolysed hyaluronic acid); format: biochemical; details: various concentrations, FIG. 1
Procedure: Determination of the IC50 of GLZ, with or without Preincubation at 37° C.: GLZ, at various concentrations, is or is not preincubated for 20 minutes at 37° C. in the presence of the enzyme. The enzyme reaction is triggered by adding the hyaluronic acid solution (time T0). After incubation for 20 minutes, the nonhydrolysed hyaluronic acid is precipitated by adding acidic bovine albumin solution. In order to verify that the preincubation step has no effect on the stability of the hyaluronidase, an aliquot of a solution of the enzyme is placed at 37° C. for 20 minutes. Another aliquot is conserved in an ice bath for 19 minutes, and is then incubated at 37° C. for 1 minute. A solution of hyaluronic acid is then added to each aliquot (T0). After incubation for 15, 30 or 45 minutes, the nonhydrolysed hyaluronic acid is precipitated by addition of acidic bovine albumin solution. After the precipitation step, the turbidimetry of the solutions is determined on a spectrophotometer at a wavelength of 600 nm. The optical density (OD) of these solutions is subtracted from the OD of a control solution of hyaluronic acid (of the same concentration) not hydrolysed by the enzyme. This difference in OD, which is inversely proportional to the concentration of hyaluronic acid, is used to measure the activity of the hyaluronidase.

[2] = humans; cited from earlier work

Sequence of hyaluronidase of bovine origin (Q2YDK3 entry or part of it): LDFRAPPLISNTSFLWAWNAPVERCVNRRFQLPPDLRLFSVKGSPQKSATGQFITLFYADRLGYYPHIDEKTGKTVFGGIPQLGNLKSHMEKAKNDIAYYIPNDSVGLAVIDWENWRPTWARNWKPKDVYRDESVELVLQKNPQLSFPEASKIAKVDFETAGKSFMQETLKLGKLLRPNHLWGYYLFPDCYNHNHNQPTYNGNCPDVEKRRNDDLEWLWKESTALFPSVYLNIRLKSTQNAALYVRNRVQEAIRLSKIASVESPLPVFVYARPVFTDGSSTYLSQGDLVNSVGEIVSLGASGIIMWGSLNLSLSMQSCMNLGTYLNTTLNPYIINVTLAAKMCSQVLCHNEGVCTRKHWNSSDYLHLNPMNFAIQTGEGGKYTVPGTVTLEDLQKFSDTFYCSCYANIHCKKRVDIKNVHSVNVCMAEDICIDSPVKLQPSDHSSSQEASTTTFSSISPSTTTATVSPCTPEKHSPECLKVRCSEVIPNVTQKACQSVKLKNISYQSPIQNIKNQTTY

Molecule | inhibitory effect on the bovine hyaluronidase [1] | excretion in the urine [2]
CC1(C)[C@@H](O[C@H]2O[C@H](C(=O)O)[C@@H](O)[C@H](O)[C@H]2O[C@@H]2O[C@H](C(=O)O)[C@@H](O)[C@H](O)[C@H]2O)CC[C@]2(C)[C@H]3C(=O)C=C4[C@@H]5C[C@@](C)(C(=O)O)CC[C@]5(C)CC[C@@]4(C)[C@]3(C)CC[C@@H]12 [GLZ, Glycyrrhizin] | dose-dependent | –
hyaluronic acid | – | less than 1 % of total clearance
